Blank lines part the entries; values can stand above or below the compound they belong to.
Experiments:
[1] = tested on: Cu-Zn superoxide dismutase; test: Competition of imidazolopyrazine and superoxide dismutase for superoxide anion (xanthine oxidase/hypoxanthine), luminescence; assay type: biochemical; settings: for change of slope of the relationship linking IO/I to the superoxide dismutase concentration: when the concentration of the luminescent compound is increased
Text: This method is based on the capacity of imidazolopyrazines to react with the superoxide anion, emitting light.
In these experiments, a constant level of superoxide anion is generated by an enzymatic method, by reacting xanthine oxidase with hypoxanthine in the presence of oxygen.
The maximum light intensity, measured by a luminometer during the competition reaction, is linked to the ratio in [sic] imidazolopyrazine and superoxide dismutase concentrations, as well as to that of the respective rate constants.
Consequently, knowing the rate constant of the reaction of the competing antioxidant with the superoxide anion (K3), the rate constant of the reaction of the imidazolopyrazine with the superoxide anion (K2) may be calculated:
By carrying out this experiment at two imidazolopyrazine concentrations, it is possible to eliminate K1 [O2^2- ] corresponding to the spontaneous disproportionation reaction of O2^2-. The slopes A and B of the straight lines linking IO /I [sic] to the superoxide dismutase concentration are: [formula]
K2 =K3 /([IMPZ]1 -[IMPZ]2)/(1/A)-1/B)
When the imidazolopyrazine concentration is increased, the slope of the relationship linking IO /I [sic] to the superoxide dismutase concentration should decrease.

[2] = In vitro toxicity on other mammalian cell types (FIG. 11); assay type: cell-based; settings: pig (EAP) endothelial cells, read-out: concentration at which a toxic effect can possibly be observed
Procedure: Similar in vitro toxicity tests were performed on other mammalian (porcine, human, etc.) cell types.
FIG. 11 depicts the percentage survival of different cell types (fibroblasts, human (ECV) or pig (EAP) endothelial cells) as a function of increasing doses of CLZ-9 (molar). A toxic effect of the products can possibly be observed on a certain cell type at high concentrations (10^-4 M in pigs).

Human fibroblasts = test: Protection of human fibroblasts against oxidative stress inducer tert-butyl hydroperoxide (t-BHP); assay type: cell-based
Procedure: Human fibroblasts were subjected to an oxidative stress inducer (tert-butyl hydroperoxide (t-BHP)) for 6 to 12 hours in the absence and in the presence of increasing doses of coelenterazine and its derivatives.
In the same experimental series, the efficacy of vitamin E (α-tocopherol) (Troxol®), a major antioxidant of animal cells, was compared.

human fibroblasts (MRC5) = test: In vitro toxicity on human fibroblasts (MRC5), total protein content; assay type: cell-based; settings: concentration of 0.1 mM (10^-4 M), 1% ethanol
Procedure: Each of the imidazolopyrazine derivatives tested was applied to human fibroblasts (MRC5) in culture. The doses of the compounds ranged from 10^-8 to 10^-4 M. These compounds were applied 48 hours after the cells were inoculated into wells (volume=150 μl; 3000 cells per well).
After a further 24 hour period, the culture medium is renewed, the cells are incubated for 72 hours and their level of survival and of growth is evaluated by measuring the total protein contents in each well (Biorad).

mice [3] = test: In vivo toxicity in mice; settings: 20 μg/kg, 5 intraperitoneal injections
In vivo toxicity in mice = settings: mouse, in vivo, ip, 0.02 mg/kg
mice [4] = settings: mouse, in vivo
[5] = Stability in aqueous medium (buffers pH 4, 7, 10; assayed by luminescence in DMSO); assay type: physicochemical; settings: irrespective of the pH
Procedure: FIG. 7 depicts the stability of the derivative 10 in an aqueous medium. Three 10^-5 M solutions of CLZN-10 were prepared in citrate (pH 4), phosphate (pH 7) and glycine (pH 10) buffers. Aliquots of these solutions were sampled regularly and the CLZN-10 assayed by luminescence in DMSO.
In comparison with coelenterazine, derivatives comprising additional phenyl groups display better stability.

[6] = t-BHP-treated human fibroblasts

increase of KSOD with imidazolopyrazine concentration (effect) [1]: observed
SMILES: Cc1nc2c(Cc3ccccc3)[nH]c(-c3ccc(O)cc3)cn-2c1=O [CLZN-9, 3,7-dihydro-2-methyl-6-(p-hydroxyphenyl)-8-benzylimidazo[1,2-a]pyrazyn-3-one]
MCC [2]: 100 µM
EC100 (Human fibroblasts; Fibroblast, t-BHP-treated human fibroblasts, read-out: concentration at which protection is total): 1 µM
minimal effective concentration (Human fibroblasts; Fibroblast, t-BHP-treated human fibroblasts, read-out: concentration from which the improvement of survival is significant): 0.02 µM
survival of the t-BHP-treated cells (Human fibroblasts; t-BHP 10^-4 M, without serum (FIG. 8)): most advantageous results
antioxidant activity compared with vitamin E (Human fibroblasts; [6]): greater than

increase of KSOD with imidazolopyrazine concentration (effect) [1]: observed
SMILES: O=c1c(-c2ccccc2)nc2c(Cc3ccccc3)[nH]c(-c3ccc(O)cc3)cn1-2 [CLZN-10, 3,7-dihydro-2-phenyl-6-(p-hydroxyphenyl)-8-benzylimidazo[1,2-a]pyrazyn-3-one]

SMILES: O=c1c(Cc2ccccc2)nc2c(Cc3ccccc3)[nH]c(-c3ccc(O)cc3)cn1-2 [CLZN-11, 3,7-dihydro-2-benzyl-6-(p-hydroxyphenyl)-8-benzylimidazo[1,2-a]pyrazyn-3-one]
toxicity for human fibroblasts (MRC5) (human fibroblasts (MRC5)): significant toxicity

SMILES: Oc1ccc(Cc2nc3c(Cc4ccccc4)nc(-c4ccc(O)cc4)cn3c2O)cc1 [coelenterazine, 3,7-dihydro-2-(p-hydroxybenzyl)-6-(p-hydroxyphenyl)-8-benzylimidazo[1,2-a]pyrazyn-3-one]
toxicity for mice (mice [3]): not toxic
survival (In vivo toxicity in mice): 100%
rate constant KSOD ([1]; coelenterazine concentration 50 nM): 2×10^9
rate constant KSOD ([1]; coelenterazine concentration 400 nM): 2.5×10^10
increase in rate constant KSOD ([1]; coelenterazine concentration multiplied by 8 (from 50 to 400 nM)): 12.5 fold
change of slope of the relationship linking IO/I to the superoxide dismutase concentration [1]: a rise in the slope
Weight (in grams) after 0 day (mice [4]): 16.19 grams
Weight (in grams) after 6 days (mice [4]): 22.82 grams
Weight (in grams) after 30 days (mice [4]): 31.57 grams
survival (mice [4]): 5/5
growth retardation (mice [4]; ip): no growth retardation is observed
antioxidant activity compared with vitamin E (Human fibroblasts; [6]): equivalent to
stability in an aqueous medium [5]: only a few hours

SMILES: Nc1cccc2c(=O)[nH][nH]c(=O)c12 [luminol, reference compound]
change of slope of the relationship linking IO/I to the superoxide dismutase concentration [1]: a regular decrease in the slope

SMILES: Cc1c(C)c2c(c(C)c1O)CC[C@@](C)(CCC[C@H](C)CCC[C@H](C)CCCC(C)C)O2 [vitamin E, α-tocopherol, reference compound]
protection (Human fibroblasts; serum (10%) in the culture medium, highest concentrations): 60%

Reference: patent US6204266A, “Pharmaceutical, cosmetic and/or food composition having anti-oxidant properties” (Universite Catholique De Louvain Halles Universitaires, priority 1995, dated 2001)
